Experimental data as given in patent US20160279236A1, “USE OF RAPAMYCIN AS VACCINE ADJUVANT AND PREPARATION METHOD THEREFOR” (INSTITUT PASTEUR OF SHANGHAI, CHINESE ACADEMY OF SCIENCES, priority 2013, published 2016).
“Also recorded” adds a separate entry of the source.

Columns and labels:
BMDMs = assay: Real-time quantitative PCR of gene expression in LPS-stimulated BMDMs; type: cell-based, C57BL/6 mice; conditions: 100 nM rapamycin
Description: Bone marrow stem cells of 6-8 weeks aged C57BL/6 mice were taken, and the cells are cultivated at 10^6 cells/mL cell density in bone marrow-derived macrophage (BMDM) differentiation medium (formulation of which was: RPMI 1640 complete medium added with 30% (v/v) L929 conditioned medium and 1% (v/v) pen/strep). After differentiation for 4 days, the old culture medium (comprising suspended cells) was removed and fresh BMDM differentiation medium was added. The adhered BMDMs were collected on the 7th day of differentiation and used in in vitro experiment.
The BMDMs were pre-treated with 100 nM of rapamycin or DMSO for 1 hour, and then the cells were stimulated with 100 ng/ml LPS […]. The cells were collected at 1, 2, 4 and 8 hours, and were cryopreserved in a refrigerator at −80° C. for the extraction and preparation of RNA.
TRIZOL (Invitrogen) method was used to extract RNA of BMDM, and Superscript™ III Reverse Transcriptase Kit (Invitrogen) was used to respectively reverse transcribe 1 μg RNA so as to synthesize the first-strand cDNA for Real-time quantitative PCR determine of gene expression levels. The primers for Real-time quantitative PCR are shown in table 1. ΔΔ method was used to calculate the relative expression level of the determined gene compared with GAPDH.

[1] = system: OVA-specific T cell responses and antibody responses; assay: Ovalbumin immunization of mice with adjuvants: OVA-specific T cell and antibody responses; type: in vivo
Description: 6-8 weeks aged mice were primarily immunized by the inventors using intraperitoneal injection method, wherein Ovalbumin (10 μg/mouse) was used as antigen and PBS (negative control), MPL (10 μg/mouse, positive control), rapamycin (100 μg/mouse), rapamycin (100 μg/mouse)+MPL (10 μg/mouse) as adjuvant respectively, and were immunized again with ovalbumin (10 μg/mouse, without adjuvant) at 3 weeks. […] After 48 hours, enzyme linked immunosorbent assay (ELISA) was used to determine the content of IFNγ in the supernatant.

[2] = system: HBsAg-specific antibody and T cell responses; assay: HBsAg VLP immunization of mice with adjuvants: antibody titers and Elispot T cell responses; type: in vivo, C57BL/6 mice
Description: Virus-like particles (VLP) consisting of (HBV) outer membrane protein antigens is one of the few successful recombinant vaccines clinically used. Aluminum adjuvant (Alum) can only enhance the immune response of VLP in health populations, while it is of limited effects in the elderly people and patients with renal dysfunction. […] In order to further analyze the adjuvant activity of rapamycin, C57BL/6 mice were immunized by the inventors using HBsAg VLP (5 μg/mouse) (Shanghai Yemin Biotechnology Co., Ltd., Item number YM-101) as antigen in mixture with Alum (200 μg/mouse), Alum (200 μg/mouse)+MPL (10 μg/mouse), MPL (10 μg/mouse)+rapamycin (100 μg/mouse) respectively, and was immunized with HBsAg (without MPL or rapamycin) 3 weeks after the primary immunization. The mice were killed 2 weeks after the secondary immunization, and blood was taken to determine the content of HBsAg-specific IgG1, IgG2b, IgG2c. To test HBsAg-specific T cell responses, the inventors have determined HBsAg-specific induced Th1, Th17 and Th2 responses by Elispot (Elispot Assay).
The specific operations are listed as follows: spleen cells were inoculated at 5×10^5 cells per-well into Elispot 96-wells plate of IFNγ, IL-17 or IL-4, and treated or untreated (control) with HBsAg (10 μg/ml) or CD8 peptides (10 μg/ml, […], VWLSVIWM, China Peptides Co., LTD., Shanghai), incubated under 37° C., 5% CO2 for two days. The cells and supernatants were removed. The plates were washed with PBST for 5 times, then incubated with 50 μl of 2 μg/ml biotin-coupled IFNγ (ebioscience, cat No: 13-7312), IL-17 (ebioscience, cat No: 13-7177) or IL-4 (Mabtech, cat No: 3311-6-250) detecting antibody under 37° C. for 2 hours, washed with PBST for 5 times, then incubated with 100 μl of 1000-fold diluted Streptavidin-alkaline phosphatase (Mabtech, cat No: 3310-10) under 37° C. for 1 hour. After this incubation, plates washed with PBST for 3 times, and then washed with PBS for two times. 100 μl of NBT/CPIT substrate (Mabtech, cat No: 3650-10) was added and incubated at room temperature for 0.5 hour. Plates were washed with deionized water for 3 times, and then naturally dried in darkness. The numbers of positive spots was calculated with Elispot Reader, and then statistically analyzed.

[3] = system: HBsAg-specific antibody and T cell responses; assay: HBsAg immunization with Compositions 1-3 (different amounts of rapamycin + MPL); type: in vivo, mice
Description: Composition 1, comprising (dosage for one mouse): rapamycin 5 μg, MPL 10 μg, and PBS 0.2 ml;
Composition 2, comprising (dosage for one mouse): rapamycin 20 μg, MPL 10 μg, and PBS 0.2 ml;
Composition 3, comprising (dosage for one mouse): rapamycin 100 μg, MPL 10 μg, and PBS 0.2 mL.
Mice were immunized with Compositions 1-3 in mixture with HBsAg (5 μg, dosage for one mouse) respectively, and were boosted 3 weeks after the primary immunization. The mice were killed after one week, and the serum was prepared to determine the content of HBsAg-specific IgG1, IgG2b and IgG2c (FIG. 5). Meanwhile, spleen cells (5×10^5 cells) were respectively stimulated by using 10 μg/ml of CD8^+ T cell epitope peptide ([…] or VWLSVIWM) and CD4^+ T cell epitope peptide ([…]), and after 48 hours, enzyme linked immunosorbent assays (ELISA) was used to determine the content of IFNγ in the supernatant (FIG. 5b). […] Moreover, at all of the three concentrations, rapamycin has increased T cell response induced by MPL, especially the activation of CD4^+ and CD8^+ T cells which secrete IFN-γ (FIG. 5b).

[4] = 100 ng/ml LPS, during 4 hours of LPS stimulation, relative to GAPDH
[5] = blood 1 week after secondary immunization, single adjuvants vs negative control, combination vs MPL alone
[6] = 5 μg of rapamycin + MPL 10 μg, HBsAg 5 μg per mouse

CO[C@H]1C[C@@H]2CC[C@@H](C)[C@@](O)(O2)C(=O)C(=O)N2CCCC[C@H]2C(=O)O[C@H]([C@H](C)C[C@@H]2CC[C@@H](O)[C@H](OC)C2)CC(=O)[C@H](C)/C=C(\C)[C@@H](O)[C@@H](OC)C(=O)[C@H](C)C[C@H](C)/C=C/C=C/C=C/1C [rapamycin]
expression of IL-10 (BMDMs; [4]): inhibit the expression | transcriptional expression of IL-12a (BMDMs; [4]): increased the transcriptional expression; also recorded: promote the transcript expression | transcriptional expression of IL-12b (BMDMs; [4]): increased the transcriptional expression; also recorded: promote the transcript expression | transcriptional expression of IL-23a (BMDMs; [4]): increased the transcriptional expression; also recorded: promote the transcript expression | transcription and expression of CXCL2 (BMDMs; LPS): did not affect the transcription and expression | transcription and expression of TNFα (BMDMs; LPS): did not affect the transcription and expression | expression of CD40 (BMDMs; upon stimulation of LPS): no remarkable influence | expression of CD80 (BMDMs; upon stimulation of LPS): no remarkable influence | expression of CD86 (BMDMs; upon stimulation of LPS): no remarkable influence | expression of PD-L1 (BMDMs; upon stimulation of LPS): remarkably decreased the expression; also recorded: inhibit the expression | OVA-specific IgG1 antibody titers [1, 5]: relatively moderate | OVA-specific IgG2b antibody titers [1, 5]: relatively moderate; also recorded: enhanced | OVA-specific IgG2c antibody titers [1, 5]: relatively moderate; also recorded: enhanced | OVA-specific CD8+ T cell responses ([1]; mice i.p., ovalbumin 10 μg, MPL 10 μg, rapamycin 100 μg per mouse, IFNγ ELISA of splenic cells stimulated with OVA-1, 48 hours): relatively moderate; also recorded: enhanced | OVA-specific CD4+ (Th1) T cell responses ([1]; mice i.p., ovalbumin 10 μg, MPL 10 μg, rapamycin 100 μg per mouse, IFNγ ELISA of splenic cells stimulated with OVA-II, 48 hours): relatively moderate; also recorded: enhanced | HBsAg-specific antigen response enhanced by MPL ([2]; FIG. 4a): increased | HBsAg-specific CD8+ T cell responses ([2]; IFNγ Elispot of spleen cells, CD8 peptides, compared with MPL+Alum immunized group): increased | HBsAg-specific CD4+ T cell responses ([2]; IFNγ Elispot of spleen cells, compared with MPL+Alum immunized group): increased | HBsAg-specific Th2 cell response ([2]; IL-4 Elispot, compared with MPL+Alum immunized group): increased | HBsAg-specific Th17 cell response ([2]; IL-17 Elispot, compared with MPL+Alum immunized group): increased | antibody titers induced by MPL [3, 6]: significantly increase | increase of secretion of IgG2b induced by MPL [3, 6]: ~5 times | increase of secretion of IgG2c induced by MPL [3, 6]: ~5 times | T cell response induced by MPL (IFN-γ secreting CD4+ and CD8+ T cells) ([3]; all three amounts of rapamycin (5, 20, 100 μg) + MPL 10 μg, IFNγ ELISA of peptide-stimulated spleen cells): increased | HBsAg-specific antibody responses enhanced by MPL ([3]; different amounts of rapamycin, FIG. 5a): increased | antibodies induced by MPL ([3]; rapamycin raised to 20 or 100 μg + MPL 10 μg, HBsAg 5 μg per mouse): further enhanced | MPL-induced antibody titers and T cell response, dose dependence ([3]; rapamycin within the range of 5-100 μg): dose-dependent manner
